{
  "source": "patent US6358885B1",
  "about": "“Substituted phenylheterocyclic herbicides” (Mississippi State University, priority 1992, dated 2002)",
  "key": {"rape": {"system": "rape", "assay": "Test B preemergence/postemergence greenhouse plant response rating 0 to 10", "format": "in vivo, Brassica napus", "details": "0 to 10 scale", "procedure,_shortened": "(§1)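 Postemergence treatment of plants two to eighteen cm tall ran alongside preemergence treatment of planted seed, each using compound in a non-phytotoxic solvent.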"}, "crabgrass": {"system": "crabgrass", "assay": "Test B preemergence/postemergence greenhouse plant response rating 0 to 10", "format": "in vivo, Digitaria spp.", "details": "for Plant response rating, Crabgrass: 0 to 10 scale", "procedure,_shortened": "as §1"}, "wild oat": {"system": "wild oat", "assay": "Test C preemergence/postemergence greenhouse plant response rating 0 to 100", "format": "in vivo, Avena fatua", "details": "POSTEMERGENCE", "procedure,_shortened": "(§2)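 Compounds in non-phytotoxic solvent applied preemergence to sandy loam one day after planting, postemergence at the 1–4 leaf stage, or to ~2.5 cm floodwater over silt loam.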"}, "blackgrass": {"system": "blackgrass", "assay": "Test B preemergence/postemergence greenhouse plant response rating 0 to 10", "format": "in vivo, Alopecurus myosuroides", "details": "for Plant response rating, Blackgrass: 0 to 10 scale", "procedure,_shortened": "as §1"}, "wild buckwheat": {"system": "wild buckwheat", "assay": "Test C preemergence/postemergence greenhouse plant response rating 0 to 100", "format": "in vivo, Polygonum convolvulus", "details": "POSTEMERGENCE", "procedure,_shortened": "as §2"}, "dallisgrass": {"system": "dallisgrass", "assay": "Test G preemergence/postemergence greenhouse plant response rating 0 to 100", "format": "in vivo, Paspalum dilatatum", "details": "0 to 100 scale", "description": "(§3) Seeds, rhizomes, or plant parts of alfalfa (Medicago ativa), annual bluegrass (Poa annua), bermudagrass (Cynodon dactylon), broadleaf signalgrass (Brachiaria plantaginea), common purslane (Portulaca oleracea), common ragweed (Ambrosia elatior), […] (Paspalum dilatatum), goosegrass (Eleusine indica), guineagrass (Panicum maximum), […] exaltata), johnsongrass (Sorghum halepense), large crabgrass (Digitaria sanguinalis), peanut (Arachis hypoagaea), pitted morningglory (Ipomoea lacunosa), purple nutsedge (Cyperus rotundus), sandbur (Cenchrus echinatus), smooth crabgrass (Digitaria ischaemum) and yellow nutsedge (Cyperus esculentus) were planted into greenhouse pots containing greenhouse planting medium. Each pot contained only one plant species. The test compound was dissolved in a non-phytotoxic solvent and applied preemergence and/or postemergence to the plants. Preemergence applications were made within one day of planting the seeds or plant parts. Postemergence applications were applied when the plants were in the two to four leaf stage (three to twenty cm). Test chemicals were dissolved in a non-phytotoxic solvent and applied preemergence and postemergence to the plants. Untreated control plants and treated plants were placed in the greenhouse and visually evaluated for injury at 13 to 21 days after herbicide application. […] A dash (-) response indicates no test result."}, "purple nutsedge [1]": {"system": "purple nutsedge", "assay": "Test G preemergence/postemergence greenhouse plant response rating 0 to 100", "format": "in vivo, Cyperus rotundus", "details": "Rate 125 g/ha, 0 to 100 scale", "description": "as §3"}, "morningglory": {"system": "morningglory", "assay": "Test C preemergence/postemergence greenhouse plant response rating 0 to 100", "format": "in vivo, Ipomoea hederacea", "details": "POSTEMERGENCE", "procedure,_shortened": "as §2"}, "rice": {"system": "rice", "assay": "Test C flood test plant response rating 0 to 100", "format": "in vivo, Oryza sativa", "procedure,_shortened": "as §2"}, "wheat": {"system": "wheat", "assay": "Test C preemergence/postemergence greenhouse plant response rating 0 to 100", "format": "in vivo, Triticum aestivum", "details": "POSTEMERGENCE", "procedure,_shortened": "as §2"}, "purple nutsedge [2]": {"system": "purple nutsedge", "assay": "Test B preemergence/postemergence greenhouse plant response rating 0 to 10", "format": "in vivo, Cyperus rotundus", "details": "0 to 10 scale", "procedure,_shortened": "as §1"}, "barnyardgrass": {"system": "barnyardgrass", "assay": "Test B preemergence/postemergence greenhouse plant response rating 0 to 10", "format": "in vivo, Echinochloa crus-galli", "details": "for Plant response rating, Barnyardgrass: 0 to 10 scale", "procedure,_shortened": "as §1"}, "giant foxtail": {"system": "giant foxtail", "assay": "Test B preemergence/postemergence greenhouse plant response rating 0 to 10", "format": "in vivo, Setaria faberii", "details": "0 to 10 scale", "procedure,_shortened": "as §1"}, "corn": {"system": "corn", "assay": "Test C preemergence/postemergence greenhouse plant response rating 0 to 100", "format": "in vivo, Zea mays", "details": "POSTEMERGENCE", "procedure,_shortened": "as §2"}},
  "data": [
    {"smiles": "CC(C)N1C(=O)COc2cc(F)c(-c3nn4c(c3Cl)CCCC4)cc21", "note": "[Compound 31]", "values": [
      {"measurement": "Plant response rating, Rape", "setting": "rape; POSTEMERGENCE, Rate 10 g/ha", "result": 5},
      {"measurement": "Plant response rating, Rape", "setting": "rape; POSTEMERGENCE, Rate 50 g/ha", "result": 9},
      {"measurement": "Plant response rating, Rape", "setting": "rape; PREEMERGENCE, Rate 50 g/ha", "result": 1},
      {"measurement": "Plant response rating, Crabgrass", "setting": "crabgrass; POSTEMERGENCE, Rate 10 g/ha", "result": 4},
      {"measurement": "Plant response rating (0 to 10 scale), Crabgrass", "setting": "crabgrass; POSTEMERGENCE, Rate 50 g/ha", "result": 4},
      {"measurement": "Plant response rating, Crabgrass", "setting": "crabgrass; PREEMERGENCE, Rate 10 g/ha", "result": 0},
      {"measurement": "Plant response rating, Crabgrass", "setting": "crabgrass; PREEMERGENCE, Rate 50 g/ha", "result": 2},
      {"measurement": "Plant response rating, Wild oat", "setting": "wild oat; 62 g/ha, 0 to 100 scale", "result": 50},
      {"measurement": "Plant response rating (0 to 100), Wild oat", "setting": "wild oat; Rate 1 g/ha", "result": 10},
      {"measurement": "Plant response rating (0 to 100), Wild oat", "setting": "wild oat; Rate 4 g/ha", "result": 30},
      {"measurement": "Plant response rating (0 to 100), Wild oat", "setting": "wild oat; Rate 16 g/ha", "result": 30},
      {"measurement": "Plant response rating, Blackgrass", "setting": "blackgrass; POSTEMERGENCE, Rate 10 g/ha", "result": 4},
      {"measurement": "Plant response rating (0 to 10 scale), Blackgrass", "setting": "blackgrass; POSTEMERGENCE, Rate 50 g/ha", "result": 4},
      {"measurement": "Plant response rating, Blackgrass", "setting": "blackgrass; PREEMERGENCE, Rate 10 g/ha", "result": 3},
      {"measurement": "Plant response rating, Blackgrass", "setting": "blackgrass; PREEMERGENCE, Rate 50 g/ha", "result": 6},
      {"measurement": "Plant response rating, Wild buckwheat", "setting": "wild buckwheat; 62 g/ha, 0 to 100 scale", "result": 100},
      {"measurement": "Plant response rating (0 to 100), Wild buckwheat", "setting": "wild buckwheat; Rate 1 g/ha", "result": 70},
      {"measurement": "Plant response rating (0 to 100), Wild buckwheat", "setting": "wild buckwheat; Rate 4 g/ha", "result": 70},
      {"measurement": "Plant response rating (0 to 100), Wild buckwheat", "setting": "wild buckwheat; Rate 16 g/ha", "result": 100},
      {"measurement": "Plant response rating, Dallisgrass", "setting": "dallisgrass; POSTEMERGENCE, Rate 125 g/ha", "result": 0},
      {"measurement": "Plant response rating, Dallisgrass", "setting": "dallisgrass; POSTEMERGENCE, Rate 250 g/ha", "result": 0},
      {"measurement": "Plant response rating, Dallisgrass", "setting": "dallisgrass; PREEMERGENCE, Rate 125 g/ha", "result": 0},
      {"measurement": "Plant response rating, Dallisgrass", "setting": "dallisgrass; PREEMERGENCE, Rate 250 g/ha", "result": 0},
      {"measurement": "Plant response rating, Purple Nutsedge", "setting": "purple nutsedge [1]; POSTEMERGENCE", "result": 10},
      {"measurement": "Plant response rating, Purple Nutsedge", "setting": "purple nutsedge [1]; PREEMERGENCE", "result": 0},
      {"measurement": "Plant response rating, Morningglory", "setting": "morningglory; 62 g/ha, 0 to 100 scale", "result": 100},
      {"measurement": "Plant response rating (0 to 100), Morningglory", "setting": "morningglory; Rate 1 g/ha", "result": 70},
      {"measurement": "Plant response rating (0 to 100), Morningglory", "setting": "morningglory; Rate 4 g/ha", "result": 100},
      {"measurement": "Plant response rating (0 to 100), Morningglory", "setting": "morningglory; Rate 16 g/ha", "result": 100},
      {"measurement": "Plant response rating (0 to 100), Rice Japonica", "setting": "rice; POSTEMERGENCE section, flood test, Rate 1 g/ha", "result": 0},
      {"measurement": "Plant response rating (0 to 100), Rice Japonica", "setting": "rice; POSTEMERGENCE section, flood test, Rate 4 g/ha", "result": 0},
      {"measurement": "Plant response rating (0 to 100), Rice Japonica", "setting": "rice; Rate 16 g/ha, under POSTEMERGENCE head (flood test species)", "result": 35},
      {"measurement": "Plant response rating Rice Japonica", "setting": "rice; flood test species listed under POSTEMERGENCE, 62 g/ha, 0 to 100 scale", "result": 50},
      {"measurement": "Plant response rating, Wheat", "setting": "wheat; 62 g/ha, 0 to 100 scale", "result": 40},
      {"measurement": "Plant response rating (0 to 100), Wheat", "setting": "wheat; Rate 1 g/ha", "result": 10},
      {"measurement": "Plant response rating (0 to 100), Wheat", "setting": "wheat; Rate 4 g/ha", "result": 30},
      {"measurement": "Plant response rating (0 to 100), Wheat", "setting": "wheat; Rate 16 g/ha", "result": 30},
      {"measurement": "Plant response rating, Nutsedge", "setting": "purple nutsedge [2]; POSTEMERGENCE, Rate 10 g/ha", "result": 2},
      {"measurement": "Plant response rating, Nutsedge", "setting": "purple nutsedge [2]; POSTEMERGENCE, Rate 50 g/ha", "result": 5},
      {"measurement": "Plant response rating, Nutsedge", "setting": "purple nutsedge [2]; PREEMERGENCE, Rate 50 g/ha", "result": 0},
      {"measurement": "Plant response rating, Barnyardgrass", "setting": "barnyardgrass; POSTEMERGENCE, Rate 10 g/ha", "result": 4},
      {"measurement": "Plant response rating (0 to 10 scale), Barnyardgrass", "setting": "barnyardgrass; POSTEMERGENCE, Rate 50 g/ha", "result": 6},
      {"measurement": "Plant response rating, Barnyardgrass", "setting": "barnyardgrass; PREEMERGENCE, Rate 10 g/ha", "result": 0},
      {"measurement": "Plant response rating, Barnyardgrass", "setting": "barnyardgrass; PREEMERGENCE, Rate 50 g/ha", "result": 3},
      {"measurement": "Plant response rating, Giant foxtail", "setting": "giant foxtail; POSTEMERGENCE, Rate 10 g/ha", "result": 5},
      {"measurement": "Plant response rating, Giant foxtail", "setting": "giant foxtail; POSTEMERGENCE, Rate 50 g/ha", "result": 5},
      {"measurement": "Plant response rating, Giant foxtail", "setting": "giant foxtail; PREEMERGENCE, Rate 10 g/ha", "result": 0},
      {"measurement": "Plant response rating, Giant foxtail", "setting": "giant foxtail; PREEMERGENCE, Rate 50 g/ha", "result": 3},
      {"measurement": "Plant response rating, Corn", "setting": "corn; 62 g/ha, 0 to 100 scale", "result": 50},
      {"measurement": "Plant response rating (0 to 100), Corn", "setting": "corn; Rate 1 g/ha", "result": 20},
      {"measurement": "Plant response rating (0 to 100), Corn", "setting": "corn; Rate 4 g/ha", "result": 30},
      {"measurement": "Plant response rating (0 to 100), Corn", "setting": "corn; Rate 16 g/ha", "result": 40}
    ]}
  ]
}
